In patent US9862754B2, “Peptide analogs for treating diseases and disorders” (KeyBioscience AG, priority 2011, dated 2018):
Numbered stars: 1 amine (or outer) side, 2 acyl side, 3 side chain; on linkers, the order of the positions; unused ones are H or OH. * marks the point of attachment. Suc = O=C(CCC(=O)[*:2])[*:1]; Propionyl = CCC(=O)*

What was measured:
Type in all cases: in vivo, rat
[1] = Example 7: combination with metformin in Zucker Diabetic Fatty rats, FPG, PPG, HbA1c; details: ZDF rats; 8 weeks once daily; metformin 400 mg/kg/day oral, UGP302 5 μg/kg/day s.c.
Protocol: (§1) To assess the potential of UGP302 (SEQ ID NO: 15) in combination with metformin, Zucker Diabetic Fatty rats were used. At the age of 6 weeks 40 rats were randomized into four groups according to HbA1c, FPG and BW. The groups were: Control (Vehicle), Metformin 400 mg/kg/day, UGP302 5 μg/kg/day and the combination of the two molecules in the stated respective amounts. The treatments were given once daily, and metformin was dosed orally, while UGP302 was given subcutaneously, and the animals were treated for 8 weeks. Fasting blood glucose (FPG) and non-fasted blood glucose (PPG) were monitored biweekly, while HbA1c was measured at termination.

[2] = Example 7: insulin tolerance test in Zucker Diabetic Fatty rats; details: ZDF rats; metformin 400 mg/kg/day oral, UGP302 5 μg/kg/day s.c.
Protocol: as §1
(§2) To further assess the effect of both single doses of each molecule and the combination of these at those same doses, the rats underwent an oral glucose tolerance test (OGTT, FIGS. 23A-23B) and an insulin tolerance test (ITT, FIGS. 24A-24B).

[3] = Example 7: oral glucose tolerance test in Zucker Diabetic Fatty rats; details: ZDF rats; metformin 400 mg/kg/day oral, UGP302 5 μg/kg/day s.c.
Protocol: as §1, §2

[4] = Example 3: short-term oral treatment, body weight and food intake in DIO rats; details: for reduction in body weight vs oral sCT at same dose: DIO rats; for energy balance vs equivalent doses of oral sCT: 0.5, 1 and 2 mg/kg doses p.o., male DIO rats
Protocol: The study was performed in male Levin-DIO rats (diet-sensitive) and Levin-DR (diet-resistant) (TacLevin: CD (SD) DIO) (Taconic, Hudson, N.Y., U.S.A.) obtained at age 6-7 weeks. On arrival, DIO rats were given high fat diet (60 kcal %) (#D12495, Research Diets Inc., New Brunswick, N.J., USA) and kept on the same diet for 12 weeks prior to and during the experiment. DR rats were given low-fat diet and served as control group. Animals were pair-wise housed throughout the study. Rats were handled and pre-dosed once daily with MilliQ H2O for 2-3 weeks prior to experimental start to reduce stress-induced hyperglycemia. On the day prior to study start animals were given a single dose of vehicle. Baseline parameters were recorded in an overnight fasting (16 h) condition. Rats were randomized into treatment groups based on fasting body weight (BW) and fasting plasma glucose (FPG). Body weight, food and water intake were recorded prior to and at study end.
Animals treated with oral sCT or oral UGP284/UGP298/UGP302 received doses of 0.5 mg/kg, 1.0 mg/kg or 2.0 mg/kg combined with 150 mg/kg 5-CNAC—all dissolved in milliQ H2O.
(§3) Drug administration were given by per oral (p.o.) gavage b.i.d. during the study period and as single dose in the morning prior to start of OGTT.
(§4) Following the initial (1st) OGTT, animals were randomized into treatment groups based on FBG and BW. Animals were pre-treated 3 days (b.i.d.) prior to 2nd OGTT. The study was performed in an x-over design with each animal being its own control.
(§5) Statistical analysis was performed by one-way ANOVA followed by the Dunnett's post hoc test for multiple comparison. Student's t-test was performed to compare two paired group. All analysis was performed using GRAPHPAD PRISM software (GraphPad Prism, San Diego, Calif. U.S.A). Incremental area under curve (iAUC) during OGTT was calculated by the trapezoidal method. A value of P<0.05 was considered to be significant. All data are presented as mean±standard error of the mean (SEM).
FIG. 9A, FIG. 9B, FIG. 9C, FIG. 9D, FIG. 9E, and FIG. 9F show the effect of three different doses of oral sCT/UGP284/UGP298/UGP302 containing 0.5, 1 and 2 mg/kg compound were applied by gavage twice daily to 4 groups of rats for 3 days. * P<0.05, ** P<0.01 vs oral sCT. Results are presented as means±SEM.

[5] = Example 3: OGTT after 3 days of oral treatment in DIO rats; details: doses of 0.5, 1 and 2 mg/kg p.o.
Protocol: as §3
Animals were given 2 g/kg single dose dissolved in milliQ H20.
as §4
OGTT Following Overnight Fasting (16 h):
Blood sampling and glycemia were measured by heated tail venous puncture. Whole blood glucose levels were determined with an ACCU-CHEK® Avia blood glucose meter (Roche Diagnostics, Rotkreuz, Switzerland). Blood (approx 300 μl) is collected in 1 ml MiniCollect K3EDTA plasma-tube (Greiner-Bio-One GmbH, Frickenhausen, Germany), inverted, and stored on ice. Tubes are centrifuged 3000×g (5000 rpm in table centrifuge) for 10 min at 4° C. and plasma obtained. Plasma samples are stored at −20° C. until analysis. A total of ˜2.5 ml blood is obtained during OGTT (˜0.3% of body weight).
as §5
FIG. 10A, FIG. 10B, FIG. 10C, FIG. 10D, FIG. 10E, and FIG. 10F show the effect of oral sCT versus oral UGPs on glucose tolerance during OGTT in DIO rats. Three different doses of oral sCT/UGP284/UGP298/UGP302 containing 0.5, 1 and 2 mg/kg compound were applied by gavage twice daily to 4 groups of rats for 3 days prior to OGTT. The experimental set-up was a cross-over design. * P<0.05, ** P<0.01, *** P<0.001 vs oral vehicle. Results are presented as means±SEM.

## CN(C)C(=N)N=C(N)N [metformin, reference compound]
[1]
  fasting blood glucose (FPG): reduced
  non-fasted blood glucose (PPG): reduced
[2]
  insulin tolerance (ITT): individually improve
[3]
  glucose tolerance (OGTT): individually improve

## PrCSNLSTCVLGKLSQELHKLQTYPRTNTGSGTP-NH2 (Propionyl-CSNLSTCVLGKLSQELHKLQTYPRTNTGSGTP-NH2; ends and bridges not checked) [UGP284, calcitonin mimetic]
[4]; 2 mg/kg p.o. b.i.d. for 3 days
  reduction in body weight vs oral sCT at same dose: significantly difference at 2 mg/kg dose
[4]
  energy balance vs equivalent doses of oral sCT: superiority to equivalent doses of oral sCT
[5]
  glucose tolerance during OGTT: improvement in glucose tolerance

## SuccCSNLSTCVLGKLSQELHKLQTYPRTNTGSGTP-NH2 (Suc-CSNLSTCVLGKLSQELHKLQTYPRTNTGSGTP-NH2; ends and bridges not checked) [UGP298, calcitonin mimetic]
[4]; 1 mg/kg p.o. b.i.d. for 3 days
  reduction in body weight vs oral sCT at same dose: significantly different when compared with oral sCT
[4]; 2 mg/kg p.o. b.i.d. for 3 days
  reduction in body weight vs oral sCT at same dose: significantly different when compared with oral sCT
[4]
  energy balance vs equivalent doses of oral sCT: superiority to equivalent doses of oral sCT
[5]
  glucose tolerance during OGTT: improvement in glucose tolerance
